Measured values from patent US6498252B1, “Pyrimidine-2,4,6-trione derivatives, processes for their production and pharmaceutical agents containing these compounds” (priority 1999, dated 2002).
Like-named read-outs stand apart in the source and are kept apart here.

Molecular target: T1, MMP-8, catalytic domain (Homo sapiens, UniProt P22894)
T1 construct: Enzyme: 8 nM catalytic domain (Met80-Gly242) of human neutrophil collagenase (MMP-8); made in house
Assay: Inhibition of MMP-8 (HNC) catalytic domain, fluorogenic substrate cleavage
Format: biochemical
Description: In order to determine the inhibition of MMPs, for example HNC (MMP-8), the catalytic domain (isolation and purification see for example Schnierer, S., Kleine, T., Gote, T., Hillemann, A., Knäuper, V., Tschesche, H.,Biochem. Biophys. Res. Commun. (1993) 191, 319-326) were incubated with inhibitors having various concentrations. Subsequently, the initial reaction rate in the conversion of a standard substrate was measured in a manner analogous to Grams F. et al., FEBS 335 (1993) 76-80).
The results awee evaluated by plotting the reciprocal reaction rate against the concentration of the inhibitor. The inhibition constant (Ki) is obtained as the negative section of the abscissis by the graphical method according to Dixon, M., Biochem. J. (1953) 55, 170-202.
The synthetic collagenase substrate was a heptapeptide which is coupled, at the C terminus, with DNP (dinitrophenol). Said DNP residue quenched by steric hindrance the fluorescence of the adjacent tryptophane of the heptapeptide. After cleavage of a tripeptide which includes the DNP group, the tryptophane fluorescence increased. The proteolytic cleavage of the substrate therefore was measured by the fluorescence value.
The assay was performed at 25° C. in a freshly prepared 50 mM Tris buffer (pH 8.0) treated with dithiozone to remove traces of heavy metals. 4 mM CaCl2 was added and the buffer saturated with argon. Stock solutions of adamalysin II were prepared by centrifugation of the protein from an ammonium sulfate suspension and subsequent dissolution in the assay buffer. Stock solutions of collagenase were diluted with the assay buffer. Enzyme concentrations were determined by uv measurements (ε280=2.8 10^4 M^−1 cm^−1, ε288: 2.2 10^4 M^−. cm^−1) and the stock solutions were stored in the cold. This solution was diluted 1:100 to obtain the final 16 nM assay concentration. The fluorogenic substrate DNP-Pro-Leu-Gly-Leu-Trp-Ala-D-Arg-NH2 with a Km of 52 μM was used at a concentration of 21.4 μM; for the Ki determination a 12.8 μM concentration has also been used. Substrate fluorescence was measured at an excitation and emission wavelength of λ=320 and 420 nm, respectively, on a spectrofluorimeter (Perkin Elmer, Model 650-40) equipped with a thermostated cell holder. Substrate hydrolysis was monitored for 10 minutes. immediately after adding the enzyme. All reactions were performed at least in triplicate. The Ki values-of the inhibitors were calculated from the intersection point of the straight lines obtained by the plots of vo/vi vs. [concentration of inhibitor], whereas IC50 values were calculated from plots of vi/vo [concentration of inhibitor] by non-linear regression with simple robust weighting.
50 mM Tris/HCI pH 7.6 (Tris=Tris-(hydroxymethyl)-aminomethan)
100 mM NaCl/10 mM CaCl2/5% MeOH (ff necessary)
Enzyme: 8 nM catalytic domain (Met80-Gly242) of human neutrophil collagenase (MMP-8)
10 microM DNP-Pro-Leu-Gly-Leu-Trp-Ala-D-Arg-NH2
A solution of the enzyme and inhibitor in assay buffer (25° C.) was prepared. The reaction was started by giving the substrate into the solution. The cleavage of the fluorogenic substrate was followed by fluorescence spectroscopy with an excitation and emission wavelength of 280 and 350 nm, respectively. The IC50 value was calculated as the inhibitor concentration, which is necessary to decrease the velocity of the reaction to the half in comparison to the reaction without inhibitor.
118 cited in the patent application EP0869947

[1] = catalytic domain of human neutrophil collagenase (MMP-8), substrate DNP-Pro-Leu-Gly-Leu-Trp-Ala-D-Arg-NH2, 25° C., read-out: IC50 Values of MMP-Inhibitor (vs. MMP-8, catalytic domain)

T1 sequence (P22894 100-262 limits assumed): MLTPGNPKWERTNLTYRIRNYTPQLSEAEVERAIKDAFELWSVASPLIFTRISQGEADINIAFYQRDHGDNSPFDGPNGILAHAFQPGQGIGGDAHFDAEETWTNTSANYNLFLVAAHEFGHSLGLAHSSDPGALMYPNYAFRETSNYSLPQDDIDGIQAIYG

| SMILES | IC50 [1] | IC50 |
| --- | --- | --- |
| O=C1NC(=O)C(c2ccc(Oc3ccc(Cl)cc3)cc2)(N2CCN(c3cnccn3)CC2)C(=O)N1 [Example 2] | 4 nM | – |
| O=C1NC(=O)C(c2ccc(Oc3ccc(Cl)cc3)cc2)(N2CCN(c3ncccn3)CC2)C(=O)N1 [Example 1, 5-(4-(4-Chloro-phenoxy)-phenyl)-5-(4-pyrimidine-2-yl-piperazine)-pyrimidine-2,4,6-trione] | 10 nM | – |
| O=C1NC(=O)C(c2ccc(Oc3ccccc3)cc2)(N2CCN(c3ccc(S(=O)(=O)NCC(O)CO)cc3)CC2)C(=O)N1 (stereo not shown) [Example 5 - no. 11, N-(2,3-Dihydroxy-propyl)-4-4-[2,4,6-trioxo-5-(4-phenoxy-phenyl)-hexahydro-pyrimidin-5-yl]-piperazin-1-yl-benzenesulfonamide] | – | 4.5 nM |
| O=C1NC(=O)C(c2ccc(Oc3ccc(Cl)cc3)cc2)(N2CCN(c3ccc(S(=O)(=O)N(CCO)CCO)cc3)CC2)C(=O)N1 [Example 5 - no. 10, 4-(4-5[-4-(4-Chloro-phenoxy)-phenyl]-2,4,6-trioxo-hexahydro-pyrimidin-5-yl-piperazin-1-yl)-N,N-bis-(2-hydroxy-ethyl)-benzenesulfonamide] | – | 9 nM |
| O=C1NC(=O)C(c2ccc(Oc3ccccc3)cc2)(N2CCN(c3ccc(S(=O)(=O)NCCOCCOCCO)cc3)CC2)C(=O)N1 [Example 5 - no. 13, N-2-[2-(2-Hydroxy-ethoxy)-ethoxy]-ethyl-4-4-[2,4,6-trioxo-5-(4-phenoxy-phenyl)-hexahydro-pyrimidin-5-yl]-piperazin-1-yl-benzenesulfonamide] | – | 6 nM |
| O=C1NC(=O)C(c2ccc(Oc3ccc(Cl)cc3)cc2)(N2CCN(c3ccc(S(=O)(=O)NCCO)cc3)CC2)C(=O)N1 [Example 4, 4-(4-5-[4-(4-Chloro-phenoxy)-phenyl]-2,4,6-trioxo-hexahydro-pyrimidin-5-yl-piperazin-1-yl)-N-(2-hydroxy-ethyl)-benzenesulfonamide] | 10 nM | – |
| O=C1NC(=O)C(c2ccc(Oc3ccc(Cl)c(Cl)c3)cc2)(N2CCN(c3ncccn3)CC2)C(=O)N1 [Example 3 - no. 1, 5-[4-(3,4-Dichloro-phenoxy)-phenyl]-5-(4-pyrimidin-2-yl-piperazin-1-yl)-pyrimidine-2,4,6-trione] | 4 nM | – |
| O=C1NC(=O)C(c2ccc(Oc3ccccc3)cc2)(N2CCN(c3ccc(S(=O)(=O)NC(CO)CO)cc3)CC2)C(=O)N1 [Example 5 - no. 12, N-(2-Hydroxy-1-hydroxymethyl-ethyl)-4-4-[2,4,6-trioxo-5-(4-phenoxy-phenyl)-hexahydro-pyrimidin-5-yl]-piperazin-1-yl-benzenesulfonamide] | – | 5.5 nM |
| O=C1NC(=O)C(c2ccc(Oc3ccc(Cl)c(Cl)c3)cc2)(N2CCN(c3cnccn3)CC2)C(=O)N1 [Example 3 - no. 2, 5-[4-(3,4-Dichloro-phenoxy)-phenyl]-5-(2,3,5,6-tetrahydro-[1,2′]bipyrazinyl-4-yl)-pyrimidine-2,4,6-trione] | 2 nM | – |
| O=C1NC(=O)C(c2ccc(Oc3ccc(Br)cc3)cc2)(N2CCN(c3ncccn3)CC2)C(=O)N1 [Example 3 - no. 15, 5-[4-(4-Bromo-phenoxy)-phenyl]-5-(4-pyrimidin-2-yl-piperazin-1-yl)-pyrimidine-2,4,6-trione] | 4 nM | – |
| NS(=O)(=O)c1ccc(N2CCN(C3(c4ccc(Oc5ccc(Br)cc5)cc4)C(=O)NC(=O)NC3=O)CC2)cc1 [Example 5 - no. 6, 4-(4-5-[4-(4-Bromo-phenoxy)-phenyl]-2,4,6-trioxo-hexahydro-pyrimidin-5-yl-piperazin-1-yl)-benzenesulfonamide] | 2.8 nM | – |
| O=C1NC(=O)C(c2ccc(Oc3ccccc3)cc2)(N2CCN(c3ccc(S(=O)(=O)NC(CO)(CO)CO)cc3)CC2)C(=O)N1 [Example 5 - no. 18, N-(2-Hydroxy-1,1-bis-hydroxymethyl-ethyl)-4,4-[2,4,6-trioxo-5-(4-phenoxy-phenyl)-hexahydro-pyrimidin-5-yl]-piperazin-1-yl-benzenesulfonamide] | 13 nM | – |
| O=C1NC(=O)C(c2ccc(Oc3ccccc3)cc2)(N2CCN(c3ccc(S(=O)(=O)NCC4COC(=O)O4)cc3)CC2)C(=O)N1 (stereo not shown) [Example 6, N-(2-Oxo-[1,3]dioxolan-4-ylmethyl)-4-4-[2,4,6-trioxo-5-(4-phenoxy-phenyl)-hexahydro-pyrimidin-5-yl]-piperazin-1-yl-benzenesulfonamide] | – | 9 nM |
| O=C1NC(=O)C(c2ccc(Oc3ccc(Cl)cc3)cc2)(N2CCN(c3ccc(S(=O)(=O)NC(CO)(CO)CO)cc3)CC2)C(=O)N1 [Example 5 - no. 19, 4-(4-5-[4-(4-Chloro-phenoxy)-phenyl]-2,4,6-trioxo-hexahydro-pyrimidin-5-yl-piperazin-1-yl)-N-(2-hydroxy-1,1-bis-hydroxymethyl-ethyl)-benzenesulfonamide] | – | 9 nM |
| CN(C)CCNS(=O)(=O)c1ccc(N2CCN(C3(c4ccc(Oc5ccc(Br)cc5)cc4)C(=O)NC(=O)NC3=O)CC2)cc1 [Example 5 - no. 7, 4-(4-5-[4-(4-Bromo-phenoxy)-phenyl]-2,4,6-trioxo-hexahydro-pyrimidin-5-yl-piperazin-1-yl)-N-(2-dimethylamino-ethyl)-benzenesulfonamide] | 13 nM | – |
| NS(=O)(=O)c1ccc(N2CCN(C3(c4ccc(Oc5ccc(Cl)cc5)cc4)C(=O)NC(=O)NC3=O)CC2)cc1 [Example 5 - no. 9, 4-(4-5-[4-(4-Chloro-phenoxy)-phenyl]-2,4,6-trioxo-hexahydro-pyrimidin-5-yl-piperazin-1-yl)-benzenesulfonamide] | – | 12 nM |
